The source of these data is patent publication US20240409585A1, “MACROCYCLIC IMMUNOMODULATORS” (priority 2021, published 2024).

Numbered stars: 1 amine (or outer) side, 2 acyl side, 3 side chain; on linkers, the order of the positions; unused ones are H or OH. Bridge positions count the residues as written; N and C are the ends. Square brackets hold non-standard residues; d marks the D form. Peptide text beside a SMILES is read from it. * marks the point of attachment. Bip(4'-NHAc) = CC(=O)Nc1ccc(-c2ccc(C[C@H](N)C(=O)O)cc2)cc1; X17 = Nc1ccc(-c2cccc(C[C@H](N[*:1])C(=O)[*:2])c2)cn1; Phe(3-CF3) = N[C@@H](Cc1cccc(C(F)(F)F)c1)C(=O)O; Ala(morpholin-4-yl) = N[C@@H](CN1CCOCC1)C(=O)O; Phe(4-CONH2) = NC(=O)c1ccc(C[C@H](N)C(=O)O)cc1; Phe(4-COOH) = N[C@@H](Cc1ccc(C(=O)O)cc1)C(=O)O; Bip = N[C@@H](Cc1ccc(-c2ccccc2)cc1)C(=O)O; Phe(3-NH2) = Nc1cccc(C[C@H](N)C(=O)O)c1; Abu(3R-NH2) = C[C@@H](N)[C@H](N)C(=O)O; Phe(3-Me) = Cc1cccc(C[C@H](N)C(=O)O)c1; Abu(3S-NH2) = C[C@H](N)[C@H](N)C(=O)O; Val(3-OH) = CC(C)(O)[C@H](N)C(=O)O; hPhe = N[C@@H](CCc1ccccc1)C(=O)O; 2Pal = N[C@@H](Cc1ccccn1)C(=O)O; Cha = N[C@@H](CC1CCCCC1)C(=O)O; Carboxymethyl = O=C(O)C*; NMeA = CN[C@@H](C)C(=O)O; Orn = NCCC[C@H](N)C(=O)O; Dab = NCC[C@H](N)C(=O)O

The target in one test is T1, Alexa fluor-647 labeled human PD-L1-Ig binding to Jurkat cell line over-expressing human PD-1 (Homo sapiens, UniProt Q15116).
T1 construct: expressed in transfected cells; host or cells: Jurkat
T1 sequence (Q15116 25-288): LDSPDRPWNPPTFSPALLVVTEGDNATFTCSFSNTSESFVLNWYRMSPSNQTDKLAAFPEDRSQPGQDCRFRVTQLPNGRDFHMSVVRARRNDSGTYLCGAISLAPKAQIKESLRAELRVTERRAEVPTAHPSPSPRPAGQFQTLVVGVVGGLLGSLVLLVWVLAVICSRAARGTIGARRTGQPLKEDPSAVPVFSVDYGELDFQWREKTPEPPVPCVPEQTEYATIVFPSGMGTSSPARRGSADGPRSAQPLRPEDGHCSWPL
Put plainly: Jurkat-PD-1 Cell Binding High-Content Screening Assay (CBA): Method 3 (Alexa fluor-647 labeled PD-L1-Ig). As to conditions: Jurkat-PD-1 cells, Alexa fluor-647 labeled PD-L1-Ig 177 nM; head μM; read-out: CBA Method 3 μM. In a few lines:
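Readout by high-content imaging of PFA-fixed, Hoechst-stained cells after 1 h with 177 nM (final) Alexa fluor-647 PD-L1-Ig. Compound was added first to hPD-1 Jurkat cells in RPMI plus 10% FCS for 2 h at 37 °C.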
As for `Cc1cccc(C[C@@H]2NC(=O)[C@H](CC(=O)O)NC(=O)[C@H](Cc3ccc(OCC(=O)O)cc3)NC(=O)[C@H](CN3CCOCC3)NC(=O)CSC[C@@H](C(=O)N[C@@H](CCN)C(N)=O)NC(=O)[C@H](CCCN)NC(=O)[C@H](C(C)C)NC(=O)[C@H](CC3CCCCC3)NC(=O)[C@H](CCN)NC(=O)[C@@H](CC(C)C)NC(=O)[C@H](C)N(C)C(=O)[C@H](CCC(N)=O)NC(=O)[C@H](Cc3ccc(-c4ccccc4)cc3)NC(=O)[C@H](CCc3ccccc3)NC2=O)c1` [Example 5217] ({CH2CO}-[Ala(morpholin-4-yl)]Y(Carboxymethyl)D[Phe(3-Me)][hPhe][Bip]Q[NMeA][dL][Dab][Cha]V[Orn]C[Dab]-NH2; thioether N-14), the IC50 was determined as 0.26 µM. Still for that read-out and setting: next, `Cc1cccc(C[C@@H]2NC(=O)[C@H](CC(=O)O)NC(=O)[C@H](Cc3ccc(OCC(=O)O)cc3)NC(=O)[C@H](CC3CCCCC3)NC(=O)CSC[C@@H](C(=O)N[C@@H](CCN)C(N)=O)NC(=O)[C@H](CCCN)NC(=O)[C@H](C(C)C)NC(=O)[C@H](Cc3cccc(N)c3)NC(=O)[C@H](CCN)NC(=O)[C@@H](CC(C)C)NC(=O)[C@H](C)N(C)C(=O)[C@H](CCC(N)=O)NC(=O)[C@H](Cc3ccc(-c4ccccc4)cc3)NC(=O)[C@H](Cc3ccc(C(=O)O)cc3)NC2=O)c1` [Example 5190] ({CH2CO}-[Cha]Y(Carboxymethyl)D[Phe(3-Me)][Phe(4-COOH)][Bip]Q[NMeA][dL][Dab][Phe(3-NH2)]V[Orn]C[Dab]-NH2; thioether N-14): 0.02 µM; `CC(C)C[C@H]1NC(=O)[C@H](C)N(C)C(=O)[C@H](CCC(N)=O)NC(=O)[C@H](Cc2ccc(-c3ccccc3)cc2)NC(=O)[C@H](Cc2ccc(OCC(=O)O)cc2)NC(=O)[C@H](Cc2cccc(C(F)(F)F)c2)NC(=O)[C@H](CC(=O)O)NC(=O)[C@H](Cc2ccc(O)cc2)NC(=O)[C@H](CC2CCCCC2)NC(=O)CSC[C@@H](C(=O)N[C@@H](CCN)C(N)=O)NC(=O)[C@H](CCCN)NC(=O)[C@H](C(C)C)NC(=O)[C@H](CC2CCCCC2)NC(=O)[C@H](CCN)NC1=O` [Example 5238] ({CH2CO}-[Cha]YD[Phe(3-CF3)]Y(Carboxymethyl)[Bip]Q[NMeA][dL][Dab][Cha]V[Orn]C[Dab]-NH2; thioether N-14): 0.01 µM. As to `CC(=O)Nc1ccc(-c2ccc(C[C@@H]3NC(=O)[C@H](Cc4cccc(C(F)(F)F)c4)NC(=O)[C@H](CC(=O)O)NC(=O)[C@H](Cc4ccc(C(=O)O)cc4)NC(=O)[C@H]([C@@H](C)N)NC(=O)CSC[C@@H](C(=O)N[C@@H](CCN)C(N)=O)NC(=O)[C@H](CCC(=O)O)NC(=O)[C@H](C(C)C)NC(=O)[C@H](CC4CCCCC4)NC(=O)[C@H](CCN)NC(=O)[C@@H](CC(C)C)NC(=O)[C@H](C)N(C)C(=O)[C@H](Cc4ccc(C(=O)O)cc4)NC(=O)[C@H](Cc4ccc(-c5ccccc5)cc4)NC3=O)cc2)cc1` [Example 5160] ({CH2CO}-[Abu(3R-NH2)][Phe(4-COOH)]D[Phe(3-CF3)][Bip(4'-NHAc)][Bip][Phe(4-COOH)][NMeA][dL][Dab][Cha]VEC[Dab]-NH2; thioether N-14), the IC50 was found to be 0.04 µM. Regarding `CC(C)C[C@H]1NC(=O)[C@H](C)N(C)C(=O)[C@H](CCC(N)=O)NC(=O)[C@H](Cc2ccc(-c3ccccc3)cc2)NC(=O)[C@H](CCc2ccccc2)NC(=O)[C@H](Cc2cccc(C(F)(F)F)c2)NC(=O)[C@H](CC(=O)O)NC(=O)[C@H](Cc2ccc(OCC(=O)O)cc2)NC(=O)[C@H](CC2CCCCC2)NC(=O)CSC[C@@H](C(=O)N[C@@H](CCN)C(N)=O)NC(=O)[C@H](CCC(=O)O)NC(=O)[C@H](C(C)C)NC(=O)[C@H](CC2CCCCC2)NC(=O)[C@H](CCN)NC1=O` [Example 5213] ({CH2CO}-[Cha]Y(Carboxymethyl)D[Phe(3-CF3)][hPhe][Bip]Q[NMeA][dL][Dab][Cha]VEC[Dab]-NH2; thioether N-14), the IC50 stood at 0.33 µM. Consider `Cc1cccc(C[C@@H]2NC(=O)[C@H](CC(=O)O)NC(=O)[C@H](Cc3ccc(OCC(=O)O)cc3)NC(=O)[C@H](Cc3ccccn3)NC(=O)CSC[C@@H](C(=O)N[C@@H](CCN)C(N)=O)NC(=O)[C@H](CCCN)NC(=O)[C@H](C(C)C)NC(=O)[C@H](CC3CCCCC3)NC(=O)[C@H](CCN)NC(=O)[C@@H](CC(C)C)NC(=O)[C@H](C)N(C)C(=O)[C@H](CCC(N)=O)NC(=O)[C@H](Cc3ccc(-c4ccccc4)cc3)NC(=O)[C@H](Cc3ccc(C(=O)O)cc3)NC2=O)c1` [Example 5172] ({CH2CO}-[2Pal]Y(Carboxymethyl)D[Phe(3-Me)][Phe(4-COOH)][Bip]Q[NMeA][dL][Dab][Cha]V[Orn]C[Dab]-NH2; thioether N-14), for which the IC50 amounted to 0.33 µM. In the case of `Cc1cccc(C[C@@H]2NC(=O)[C@H](CC(=O)O)NC(=O)[C@H](Cc3ccc(OCC(=O)O)cc3)NC(=O)[C@H](CN3CCOCC3)NC(=O)CSC[C@@H](C(=O)N[C@@H](CCN)C(N)=O)NC(=O)[C@H](CCCN)NC(=O)[C@H](C(C)C)NC(=O)[C@H](CC3CCCCC3)NC(=O)[C@H](CCN)NC(=O)[C@@H](CC(C)C)NC(=O)[C@H](C)N(C)C(=O)[C@H](CCC(N)=O)NC(=O)[C@H](Cc3ccc(-c4ccccc4)cc3)NC(=O)[C@H](Cc3cccc(-c4ccc(N)nc4)c3)NC2=O)c1` [Example 5103] ({CH2CO}-[Ala(morpholin-4-yl)]Y(Carboxymethyl)D[Phe(3-Me)][X17][Bip]Q[NMeA][dL][Dab][Cha]V[Orn]C[Dab]-NH2; thioether N-14), the IC50 worked out at 0.38 µM.

Still in this test, the particulars now being: Jurkat-PD-1 cells, Alexa fluor-647 labeled PD-L1-Ig 177 nM; nM; read-out: CBA Method 3.
For `CC(C)C[C@H]1NC(=O)[C@H](C)N(C)C(=O)[C@H](CCC(N)=O)NC(=O)[C@H](Cc2ccc(-c3ccccc3)cc2)NC(=O)[C@H](Cc2ccc(OCC(=O)O)cc2)NC(=O)[C@H](Cc2cccc(C(F)(F)F)c2)NC(=O)[C@H](CC(=O)O)NC(=O)[C@H](Cc2ccc(OCC(=O)O)cc2)NC(=O)[C@H]([C@@H](C)N)NC(=O)CSC[C@@H](C(=O)N[C@@H](CCN)C(N)=O)NC(=O)[C@H](CCCN)NC(=O)[C@H](C(C)C)NC(=O)[C@H](CC2CCCCC2)NC(=O)[C@H](CCN)NC1=O` [Example 5220] ({CH2CO}-[Abu(3R-NH2)]Y(Carboxymethyl)D[Phe(3-CF3)]Y(Carboxymethyl)[Bip]Q[NMeA][dL][Dab][Cha]V[Orn]C[Dab]-NH2; thioether N-14), the IC50 amounted to 0.0024 µM. Same read-out and setting: as for `CC(C)C[C@H]1NC(=O)[C@H](C)N(C)C(=O)[C@H](Cc2ccc(C(N)=O)cc2)NC(=O)[C@H](Cc2ccc(-c3ccccc3)cc2)NC(=O)[C@H](Cc2ccc(C(=O)O)cc2)NC(=O)[C@H](Cc2cccc(C(F)(F)F)c2)NC(=O)[C@H](CC(=O)O)NC(=O)[C@H](Cc2ccc(C(=O)O)cc2)NC(=O)[C@H]([C@H](C)N)NC(=O)CSC[C@@H](C(=O)N[C@@H](CCN)C(N)=O)NC(=O)[C@H](CO)NC(=O)[C@H](C(C)(C)O)NC(=O)[C@H](CC2CCCCC2)NC(=O)[C@H](CCN)NC1=O` [Example 5208] ({CH2CO}-[Abu(3S-NH2)][Phe(4-COOH)]D[Phe(3-CF3)][Phe(4-COOH)][Bip][Phe(4-CONH2)][NMeA][dL][Dab][Cha][Val(3-OH)]SC[Dab]-NH2; thioether N-14), the figure is 0.0038 µM.
